Tested on: cancer cell lines HCT-116, SCC VII, and A549
Assay type: cell-based

O=C(CBr)N1CC([N+](=O)[O-])([N+](=O)[O-])C1 [Sample 2, 2-bromo-1-(3,3-dinitroazetidin-1-yl)ethanone]
suppressing viability of cancer cell lines, compared to impact sensitive form of ABDNAZ (samples 1 and 3): more effective
